Measurements as given in patent publication EP1674457B1, “Derivatives of squaric acid with anti-proliferative activity” (GPC Biotech AG, priority 2004, dated 2006).
Like-named read-outs stand apart in the source and are kept apart here.

Assays:
A2780 [1] = assay: SRB assay, inhibition of tumor cell growth at 1 µM (Example 61); type: cell-based, Human; conditions: 48 hours; for inhibition at 1 µM: Homo sapiens
Experimental: (§1) 3,000-15,000 cells/well were exposed to the test compounds at a concentration of 1 µM for 48 hours, and cytotoxicty was measured using the SRB assay according to Shekan et al (J Natl Cancer Inst (1990) 82, 1107-112). Briefly, cells were plated in 96 well dishes 24 hours prior to compound addition. The assay was terminated with the addition of cold TCA to a final concentration of 10% and the plates were incubated for one hour at 4°C. The plates were then washed 5 times with water and 100µl of a Sulforhodamine B solution (4%) was added to each well. The plate was then incubated for 10 minutes at room temperature before removal of unbound dye by washing with 1% acetic acid. The bound dye was solubilized with 10 mM Trizma base and the absorbance read at OD570. Inhibitory activity of the compounds was calculated as % inhibition compared to cells treated with the solvent (DMSO). Table 2 represents the growth inhibitory activity of certain compunds of the invention across a number of tumor cell lines.

HCT-116 [2] = assay: as above; type: cell-based; conditions: 48 hours; for inhibition at 1 µM: Homo sapiens
Experimental: as §1

PC-3 [3] = assay: as above; type: cell-based; conditions: 48 hours; for inhibition at 1 µM: Homo sapiens
Experimental: as §1

SW-620 [4] = assay: as above; type: cell-based; conditions: 48 hours; for inhibition at 1 µM: Homo sapiens
Experimental: as §1

A2780 [5] = assay: IC50 determination by SRB assay (Example 62); type: cell-based; conditions: Homo sapiens
Experimental: as §1
(§2) The assay was performed similar to example 61. However, test compounds were added at various concentrations, such as from 0.001 to about 0.1 µM, from 0.1 to about 10 µM, or from 1 to about 10 µM, as the need may be, in order to estimate the IC50 values. IC50 values were determined by plotting the percentage inhibitory activity for each concentration, fitting a curve using appropriate software and estimating the concentration at which 50% inhibition of growth would occur.

HCT-116 [6] = assay: IC50 determination by SRB assay (Example 62); type: cell-based; conditions: HCY-116
Experimental: as §1, §2

MCF7 [7] = assay: IC50 determination by SRB assay (Example 62); type: cell-based
Experimental: as §1, §2

PC-3 [8] = assay: IC50 determination by SRB assay (Example 62); type: cell-based; conditions: Homo sapiens
Experimental: as §1, §2

A-549 = assay: SRB assay, inhibition of tumor cell growth at 1 µM (Example 61); type: cell-based; conditions: for inhibition at 1 µM: Homo sapiens, A549, 48 hours; for % Inhibition (1 µM): 48 hours
Experimental: as §1

MCF7 [9] = assay: as above; type: cell-based; conditions: 48 hours; for inhibition at 1 µM: Homo sapiens
Experimental: as §1

SW-620 [10] = assay: IC50 determination by SRB assay (Example 62); type: cell-based
Experimental: as §1, §2

Compound | IC50 (A2780 [5]) | IC50 (HCT-116 [6]; Homo sapiens, HCT-116) | IC50 (MCF7 [7]; Homo sapiens) | IC50 (PC-3 [8]) | IC50 (SW-620 [10]; Homo sapiens) | IC50 (HCT-116 [6]) | IC50 (MCF7 [7]) | IC50 (SW-620 [10]) | inhibition at 1 µM (A2780 [1]) | inhibition at 1 µM (HCT-116 [2]) | inhibition at 1 µM (PC-3 [3]) | inhibition at 1 µM (SW-620 [4]) | inhibition at 1 µM (A-549) | inhibition at 1 µM (MCF7 [9]) | % Inhibition (1 µM) (A2780 [1]) | % Inhibition (1 µM) (A-549) | % Inhibition (1 µM) (HCT-116 [2]) | % Inhibition (1 µM) (PC-3 [3]) | % Inhibition (1 µM) (SW-620 [4]) | % Inhibition (1 µM) (MCF7 [9])
O=c1c(NCc2cccc(Oc3ccc(Cl)cc3)c2)c(Nc2cccnc2)c1=O [SQ-33, 3-[3-(4-Chlorophenoxy)-benzylamino]-4-(pyridin-3-yl-amino)-cyclobut-3-ene-1,2-dione] | – | – | – | – | – | – | – | – | > 20% | > 50% | 0% | > 5% | 0% | 0% | – | – | – | – | – | –
O=c1c(NCCCCCOc2ccc(Cl)cc2)c(Nc2ccncc2)c1=O [SQ-8] | – | < 100 nM | < 100 nM | – | < 2000 nM | – | – | – | > 80% | > 80% | > 50% | > 20% | > 5% | > 80% | – | – | – | – | – | –
N#Cc1ccc(OCCCCCCNc2c(Nc3ccncc3)c(=O)c2=O)cc1 [SQ-19, 4-{6-[3,4-Dioxo-2-(pyridin-4-ylamino)-cyclobut-1-enylamino]-hexyloxy}-benzonitrile] | – | – | – | – | – | – | – | – | > 50% | > 5% | > 5% | > 5% | > 0% | – | – | – | – | – | – | –
3-[4-Phenoxybenzylamino]-4-(pyridin-4-yl-amino)-cyclobut-3-ene-1,2-dione [SQ-34] | – | – | – | – | – | – | – | – | – | – | – | – | – | – | >20% | 0% | >20% | >0% | 0% | –
O=c1c(NCCCCCCOc2ccc(Cl)cc2)c(Nc2cccnc2)c1=O [SQ-1B] | < 100 nM | < 20 nM | < 10 nM | – | < 2000 nM | – | – | – | > 80% | > 80% | > 50% | > 20% | > 20% | > 80% | – | – | – | – | – | –
3-[2-(4-Phenoxyphenyl)-ethylamino]-4-(pyridin-3-yl-amino)-cyclobut-3-ene-1,2-dione [SQ-5] | – | – | – | – | – | < 100 nM | < 10000 nM | < 2000 nM | – | – | – | – | – | – | >80% | – | >80% | >50% | 0% | >50%
O=c1c(NCCCCCOc2ccc(Cl)cc2)c(Nc2cccnc2)c1=O [SQ-2] | < 20 nM | < 20 nM | < 20 nM | – | < 10000 nM | – | – | – | > 80% | > 80% | > 50% | > 50% | > 50% | > 80% | – | – | – | – | – | –
3-[6-(3,4-Dichlorophenoxy)-hexylamino)]-4-(pyridin-4yl-amino)-3-cyclobutene-1,2-dione [SQ-15] | – | – | – | – | – | < 100 nM | – | < 500 nM | – | – | – | – | – | – | >80% | >20% | >80% | >50% | >20% | >20%
O=c1c(NCCCCOc2ccc(Cl)cc2)c(Nc2ccncc2)c1=O [SQ-10] | – | < 2000 nM | < 2000 nM | – | < 10000 nM | – | – | – | > 50% | > 50% | – | > 20% | 0% | > 50% | – | – | – | – | – | –

Now from value to compound, other results behind:

IC50 (A2780 [5]) | IC50 (HCT-116 [6]; Homo sapiens, HCT-116) | IC50 (MCF7 [7]; Homo sapiens) | IC50 (PC-3 [8]) | IC50 (SW-620 [10]; Homo sapiens) | IC50 (HCT-116 [6]) | IC50 (MCF7 [7]) | IC50 (SW-620 [10]) | Compound | inhibition at 1 µM (A2780 [1]) | inhibition at 1 µM (HCT-116 [2]) | inhibition at 1 µM (PC-3 [3]) | inhibition at 1 µM (SW-620 [4]) | inhibition at 1 µM (A-549) | inhibition at 1 µM (MCF7 [9]) | % Inhibition (1 µM) (A2780 [1]) | % Inhibition (1 µM) (A-549) | % Inhibition (1 µM) (HCT-116 [2]) | % Inhibition (1 µM) (PC-3 [3]) | % Inhibition (1 µM) (SW-620 [4]) | % Inhibition (1 µM) (MCF7 [9])
< 100 nM | < 100 nM | < 100 nM | – | – | – | – | – | O=c1c(NCCCCCCOc2ccc(Cl)cc2)c(Nc2ccncc2)c1=O [SQ-7B] | > 80% | > 80% | > 50% | > 50% | – | – | – | – | – | – | – | –
< 20 nM | < 100 nM | – | < 500 nM | – | – | – | – | O=c1c(NCCc2ccc(Oc3ccc(Cl)cc3)cc2)c(Nc2ccncc2)c1=O [SQ-20, 3-{2-[4-(4-Chlorophenoxy)-phenyl]-ethylamino}-4-(pyridin-4-yl-amino)-cyclobut-3-ene-1,2-dione] | – | – | – | – | – | – | – | – | – | – | – | –
< 2000 nM | < 2000 nM | – | < 10000 nM | – | – | – | – | O=c1c(NCCC2CCN(Cc3ccccc3)CC2)c(Nc2cccnc2)c1=O [SQ-37, 3-[2-(1-Benzylpiperidin-4-yl)ethylamino]-4-(pyridin-3-yl-amino)-cyclobut-3-ene-1,2-dione] | – | – | – | – | – | – | – | – | – | – | – | –
– | – | < 10000 nM | – | < 2000 nM | – | – | – | O=c1c(NCCCCCCOc2ccc(C(F)(F)F)cc2)c(Nc2ccncc2)c1=O [SQ-18, 3-[6-(4-Trifluoromethylphenoxy)-hexylamino]-4-(pyridin-4-yl-amino)-cyclobut-3-ene-1,2-dione] | > 80% | > 80% | > 50% | > 20% | > 20% | – | – | – | – | – | – | –
< 100 nM | < 20 nM | < 10000 nM | – | < 500 nM | – | – | – | O=c1c(NCCc2ccc(Oc3ccccc3)cc2)c(Nc2ccncc2)c1=O [SQ-17, 3-[2-(4-Phenoxyphenyl)-ethylamino]-4-(pyridin-4-yl-amino)-cyclobut-3-ene-1,2-dione] | > 80% | > 80% | > 50% | > 20% | > 50% | – | – | – | – | – | – | –
– | – | < 500 nM | – | < 2000 nM | – | – | – | O=c1c(NCCCCCCCCOc2ccc(Cl)cc2)c(Nc2ccncc2)c1=O [SQ-9] | > 80% | > 80% | > 50% | > 50% | > 5% | > 80% | – | – | – | – | – | –
– | < 100 nM | – | – | < 2000 nM | – | – | – | O=c1c(NCCCCCCNc2ccc(Cl)cc2)c(Nc2cccnc2)c1=O [SQ-26, 3-[6-(4-Chlorophenylamino)-hexylamino]-4-(pyridin-3-yl-amino)-cyclobut-3-ene-1,2-dione] | > 80% | > 80% | > 50% | > 20% | > 50% | > 5% | – | – | – | – | – | –
– | < 500 nM | – | – | < 2000 nM | – | – | – | O=c1c(NCCCCCCNc2ccc(Cl)cc2)c(Nc2ccncc2)c1=O [SQ-25, 3-[6-(4-Chlorophenylamino)-hexylamino]-4-(pyridin-4-yl-amino)-cyclobut-3-ene-1,2-dione] | > 80% | > 80% | > 50% | > 20% | > 20% | > 5% | – | – | – | – | – | –
– | < 100 nM | – | – | < 2000 nM | – | – | – | COc1ccc(OCCCCCCNc2c(Nc3ccncc3)c(=O)c2=O)cc1 [SQ-14] | > 80% | > 80% | > 50% | > 20% | > 20% | > 5% | – | – | – | – | – | –
– | < 100 nM | – | – | < 2000 nM | – | – | – | Cc1ccc(OCCCCCCNc2c(Nc3ccncc3)c(=O)c2=O)cc1 [SQ-13] | > 80% | > 80% | > 50% | > 20% | > 20% | > 5% | – | – | – | – | – | –
– | < 2000 nM | < 500 nM | – | > 10000 nM | – | – | – | O=c1c(NCc2ccc(Oc3ccc(Cl)cc3)cc2)c(Nc2cccnc2)c1=O [SQ-30, 3-[4-(4-Chlorophenoxy)-benzylamino]-4-(pyridin-3-yl-amino)-cyclobut-3-ene-1,2-dione] | > 80% | > 80% | > 20% | > 20% | > 50% | > 80% | – | – | – | – | – | –
– | < 20 nM | < 20 nM | – | < 500 nM | – | – | – | O=c1c(NCCCCCCCOc2ccccc2)c(Nc2ccncc2)c1=O [SQ-11B, 3-(7-Phenoxyheptylamino)-4-(pyridin-4yl-amino)-3-cyclobutene-1,2-dione] | > 80% | > 80% | > 50% | > 50% | > 50% | > 80% | – | – | – | – | – | –
< 100 nM | < 100 nM | > 10000 nM | – | > 10000 nM | – | – | – | O=c1c(NCc2ccc(COc3ccc(Cl)cc3)cc2)c(Nc2cccnc2)c1=O [SQ-32, 3-[4-(4-Chlorophenoxymethyl)-benzylamino]-4-(pyridin-3-yl-amino)-cyclobut-3-ene-1,2-dione] | > 80% | > 80% | > 50% | > 5% | > 20% | > 20% | – | – | – | – | – | –
– | < 100 nM | < 100 nM | – | < 2000 nM | – | – | – | O=c1c(NCCCCCCCOc2ccc(Cl)cc2)c(Nc2ccncc2)c1=O [SQ-11A] | > 80% | > 80% | > 20% | > 50% | > 5% | > 80% | – | – | – | – | – | –
